From paper PMC9684079, “Pharmacological targeting of glutamatergic neurons within the brainstem for weight reduction” (Nature Metabolism, 2022)

Key:
Experiment in all cases: biochemical
HMG-CoA Reductase = target: T1, HMG-CoA Reductase (Homo sapiens, UniProt P04035); set-up: Cerep/Eurofins selectivity panel, enzymes, per cent inhibition at 10 uM; settings: read-out: % Inhibition
T1 construct: gene HMGCR

Cyclooxygenase COX-1 = target: T2, Cyclooxygenase COX-1 (Homo sapiens, UniProt P23219); set-up: Cerep/Eurofins selectivity panel, enzymes, per cent inhibition at 10 uM; settings: read-out: % Inhibition
T2 construct: gene PTGS1

[1] = target: T3, Peptidase, Matrix metalloprotease-13 (MMP-13) (Homo sapiens, UniProt P45452); set-up: Cerep/Eurofins selectivity panel, enzymes, per cent inhibition at 10 uM; settings: read-out: % Inhibition
T3 construct: gene MMP13

Monoamine Oxidase MAO-B = target: T4, Monoamine Oxidase MAO-B (Homo sapiens, UniProt P27338); set-up: Cerep/Eurofins selectivity panel, enzymes, per cent inhibition at 10 uM; settings: read-out: % Inhibition
T4 construct: gene MAOB

Phosphodiesterase PDE5 = target: T5, Phosphodiesterase PDE5 (Homo sapiens, UniProt O76074); set-up: Cerep/Eurofins selectivity panel, enzymes, per cent inhibition at 10 uM; settings: read-out: % Inhibition
T5 construct: gene PDE5A

[2] = target: Protein Serine/Threonine Kinase, MAPK1 (ERK2) (Homo sapiens, UniProt P28482); set-up: Cerep/Eurofins selectivity panel, enzymes, per cent inhibition at 10 uM; settings: read-out: % Inhibition
[3] = target: Protein Serine/Threonine Phosphatase, PPP3CA (Calccineurin, PP2B) (Homo sapiens, UniProt Q08209); set-up: Cerep/Eurofins selectivity panel, enzymes, per cent inhibition at 10 uM; settings: read-out: % Inhibition
[4] = target: T6, Protein Tyrosine Kinase, EGF receptor (Homo sapiens, UniProt P00533); set-up: Cerep/Eurofins selectivity panel, enzymes, per cent inhibition at 10 uM; settings: read-out: % Inhibition
T6 construct: gene EGFR

Peptidase, Renin = target: T7, Peptidase, Renin (Homo sapiens, UniProt P00797); set-up: Cerep/Eurofins selectivity panel, enzymes, per cent inhibition at 10 uM; settings: read-out: % Inhibition
T7 construct: gene REN

[5] = target: Protein Tyrosine Kinase, ERBB2 (HER2) (Homo sapiens, UniProt P04626); set-up: Cerep/Eurofins selectivity panel, enzymes, per cent inhibition at 10 uM; settings: read-out: % Inhibition
[6] = target: T8, Peptidase, Matrix metalloprotease-1 (MMP-1) (Homo sapiens, UniProt P03956); set-up: Cerep/Eurofins selectivity panel, enzymes, per cent inhibition at 10 uM; settings: read-out: % Inhibition
T8 construct: gene MMP1

[7] = target: T9, Peptidase, Matrix metalloprotease-7 (MMP-7) (Homo sapiens, UniProt P09237); set-up: Cerep/Eurofins selectivity panel, enzymes, per cent inhibition at 10 uM; settings: read-out: % Inhibition
T9 construct: gene MMP7

[8] = target: T10, Protein Tyrosine Kinase, Insulin receptor (Homo sapiens, UniProt P06213); set-up: Cerep/Eurofins selectivity panel, enzymes, per cent inhibition at 10 uM; settings: read-out: % Inhibition
T10 construct: gene INSR
T10 sequence (P06213 whole entry): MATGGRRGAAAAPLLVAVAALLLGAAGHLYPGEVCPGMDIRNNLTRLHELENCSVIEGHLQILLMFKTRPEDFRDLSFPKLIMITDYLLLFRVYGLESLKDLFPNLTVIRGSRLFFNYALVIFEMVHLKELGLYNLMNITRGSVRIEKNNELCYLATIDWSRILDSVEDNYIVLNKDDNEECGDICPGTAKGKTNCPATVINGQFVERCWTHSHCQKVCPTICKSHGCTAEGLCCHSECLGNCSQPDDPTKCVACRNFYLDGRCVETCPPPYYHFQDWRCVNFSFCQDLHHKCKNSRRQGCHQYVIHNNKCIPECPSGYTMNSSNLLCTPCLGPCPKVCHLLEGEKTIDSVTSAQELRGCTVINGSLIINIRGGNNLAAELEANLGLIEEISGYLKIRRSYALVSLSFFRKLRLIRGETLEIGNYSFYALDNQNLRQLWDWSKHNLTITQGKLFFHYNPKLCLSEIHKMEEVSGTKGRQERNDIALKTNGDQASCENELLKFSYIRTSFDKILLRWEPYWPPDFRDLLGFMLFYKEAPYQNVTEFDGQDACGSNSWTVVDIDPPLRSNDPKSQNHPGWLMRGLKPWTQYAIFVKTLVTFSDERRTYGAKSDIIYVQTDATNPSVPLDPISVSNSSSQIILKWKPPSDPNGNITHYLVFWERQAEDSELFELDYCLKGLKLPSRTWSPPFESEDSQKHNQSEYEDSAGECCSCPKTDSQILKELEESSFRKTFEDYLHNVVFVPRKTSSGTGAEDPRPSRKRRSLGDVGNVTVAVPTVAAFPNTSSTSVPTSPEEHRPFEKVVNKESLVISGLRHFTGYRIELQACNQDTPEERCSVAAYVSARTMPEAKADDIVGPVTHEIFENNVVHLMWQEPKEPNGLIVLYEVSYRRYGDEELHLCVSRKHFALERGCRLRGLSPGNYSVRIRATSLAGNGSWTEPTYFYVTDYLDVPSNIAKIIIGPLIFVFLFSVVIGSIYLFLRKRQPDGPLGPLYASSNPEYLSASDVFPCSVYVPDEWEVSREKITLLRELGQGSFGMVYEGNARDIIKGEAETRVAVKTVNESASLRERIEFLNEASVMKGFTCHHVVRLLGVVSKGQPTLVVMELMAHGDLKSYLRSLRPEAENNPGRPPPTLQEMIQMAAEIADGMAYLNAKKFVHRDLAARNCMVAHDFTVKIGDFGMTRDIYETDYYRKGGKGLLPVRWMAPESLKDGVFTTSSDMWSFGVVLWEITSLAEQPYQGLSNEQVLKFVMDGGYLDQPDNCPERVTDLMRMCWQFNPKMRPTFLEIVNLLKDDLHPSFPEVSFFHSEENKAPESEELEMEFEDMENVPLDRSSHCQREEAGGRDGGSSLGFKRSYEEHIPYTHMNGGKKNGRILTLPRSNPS

[9] = target: Protein Serine/Threonine Kinase, MAPK14 (p38a) (Homo sapiens, UniProt Q16539); set-up: Cerep/Eurofins selectivity panel, enzymes, per cent inhibition at 10 uM; settings: read-out: % Inhibition
Sequence of Protein Serine/Threonine Kinase, MAPK14 (p38a) (Q16539 whole entry): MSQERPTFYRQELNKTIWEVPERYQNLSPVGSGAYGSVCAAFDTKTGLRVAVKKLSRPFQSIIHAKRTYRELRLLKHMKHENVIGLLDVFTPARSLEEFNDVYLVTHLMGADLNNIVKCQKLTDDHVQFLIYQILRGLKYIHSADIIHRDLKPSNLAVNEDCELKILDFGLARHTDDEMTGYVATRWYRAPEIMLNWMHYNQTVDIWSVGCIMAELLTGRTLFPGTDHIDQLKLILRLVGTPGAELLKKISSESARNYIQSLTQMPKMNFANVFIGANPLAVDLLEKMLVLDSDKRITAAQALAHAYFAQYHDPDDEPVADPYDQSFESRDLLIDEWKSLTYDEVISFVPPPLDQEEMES

5-Lipoxygenase = target: T11, 5-Lipoxygenase (Homo sapiens, UniProt P09917); set-up: Cerep/Eurofins selectivity panel, enzymes, per cent inhibition at 10 uM; settings: read-out: % Inhibition
T11 construct: gene ALOX5
T11 sequence (P09917 whole entry): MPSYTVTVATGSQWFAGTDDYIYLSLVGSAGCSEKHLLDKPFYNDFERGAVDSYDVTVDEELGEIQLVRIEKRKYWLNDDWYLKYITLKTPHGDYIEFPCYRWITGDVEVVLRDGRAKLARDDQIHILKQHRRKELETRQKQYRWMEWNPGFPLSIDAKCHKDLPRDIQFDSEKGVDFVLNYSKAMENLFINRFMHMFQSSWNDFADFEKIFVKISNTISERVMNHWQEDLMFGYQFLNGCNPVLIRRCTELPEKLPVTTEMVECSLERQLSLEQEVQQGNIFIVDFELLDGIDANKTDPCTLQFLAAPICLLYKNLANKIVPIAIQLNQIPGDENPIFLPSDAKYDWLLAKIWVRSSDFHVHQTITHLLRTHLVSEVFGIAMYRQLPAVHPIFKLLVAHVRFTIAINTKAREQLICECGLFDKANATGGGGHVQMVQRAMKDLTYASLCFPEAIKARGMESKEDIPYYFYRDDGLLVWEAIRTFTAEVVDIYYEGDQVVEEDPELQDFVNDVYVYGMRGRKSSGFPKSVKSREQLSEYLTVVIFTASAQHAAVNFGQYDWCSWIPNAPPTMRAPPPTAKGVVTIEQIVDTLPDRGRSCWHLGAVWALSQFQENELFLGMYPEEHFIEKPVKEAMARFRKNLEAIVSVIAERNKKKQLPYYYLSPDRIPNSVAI

[10] = target: T12, Cholinesterase, Acetyl, ACES (Homo sapiens, UniProt P22303); set-up: Cerep/Eurofins selectivity panel, enzymes, per cent inhibition at 10 uM
T12 construct: gene ACHE

Muscarinic M2 = target: T13, Muscarinic M2 (Homo sapiens, UniProt P08172); set-up: Cerep/Eurofins selectivity panel, receptors, channels and transporters, per cent inhibition at 10 uM; settings: read-out: % Inhibition
T13 construct: gene CHRM2
T13 sequence (P08172 whole entry): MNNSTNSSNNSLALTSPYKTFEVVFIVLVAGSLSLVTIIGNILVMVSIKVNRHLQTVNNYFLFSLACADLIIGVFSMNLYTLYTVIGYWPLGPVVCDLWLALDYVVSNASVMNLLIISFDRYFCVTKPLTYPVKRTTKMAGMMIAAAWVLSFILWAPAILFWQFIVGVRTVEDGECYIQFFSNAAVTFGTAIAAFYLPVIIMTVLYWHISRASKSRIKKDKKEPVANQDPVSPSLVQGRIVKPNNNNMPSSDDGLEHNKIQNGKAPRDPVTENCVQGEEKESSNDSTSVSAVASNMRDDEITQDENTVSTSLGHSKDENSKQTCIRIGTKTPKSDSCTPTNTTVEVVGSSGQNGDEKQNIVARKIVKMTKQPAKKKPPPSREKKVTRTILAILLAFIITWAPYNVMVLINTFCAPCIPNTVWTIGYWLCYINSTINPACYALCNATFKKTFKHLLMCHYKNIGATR

Cholecystokinin CCK2 = target: T14, Cholecystokinin CCK2 (Homo sapiens, UniProt P32239); set-up: Cerep/Eurofins selectivity panel, receptors, channels and transporters, per cent inhibition at 10 uM; settings: read-out: % Inhibition
T14 construct: gene CCKBR
T14 sequence (P32239 whole entry): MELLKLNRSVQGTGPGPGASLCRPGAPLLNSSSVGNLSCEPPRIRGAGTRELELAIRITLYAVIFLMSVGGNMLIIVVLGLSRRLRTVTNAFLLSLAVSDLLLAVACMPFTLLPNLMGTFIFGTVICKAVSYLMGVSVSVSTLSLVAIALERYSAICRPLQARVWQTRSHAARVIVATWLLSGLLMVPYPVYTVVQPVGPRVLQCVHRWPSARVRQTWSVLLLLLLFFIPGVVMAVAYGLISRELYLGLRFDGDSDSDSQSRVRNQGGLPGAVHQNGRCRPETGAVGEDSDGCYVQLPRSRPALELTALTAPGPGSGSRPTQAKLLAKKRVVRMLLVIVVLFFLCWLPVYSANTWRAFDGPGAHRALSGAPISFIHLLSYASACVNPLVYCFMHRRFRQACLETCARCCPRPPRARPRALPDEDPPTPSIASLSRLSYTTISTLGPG

[11] = target: T15, Transporter, Serotonin (SERT) (Homo sapiens, UniProt P31645); set-up: Cerep/Eurofins selectivity panel, receptors, channels and transporters, per cent inhibition at 10 uM; settings: read-out: % Inhibition
T15 construct: gene SLC6A4
T15 sequence (P31645 whole entry): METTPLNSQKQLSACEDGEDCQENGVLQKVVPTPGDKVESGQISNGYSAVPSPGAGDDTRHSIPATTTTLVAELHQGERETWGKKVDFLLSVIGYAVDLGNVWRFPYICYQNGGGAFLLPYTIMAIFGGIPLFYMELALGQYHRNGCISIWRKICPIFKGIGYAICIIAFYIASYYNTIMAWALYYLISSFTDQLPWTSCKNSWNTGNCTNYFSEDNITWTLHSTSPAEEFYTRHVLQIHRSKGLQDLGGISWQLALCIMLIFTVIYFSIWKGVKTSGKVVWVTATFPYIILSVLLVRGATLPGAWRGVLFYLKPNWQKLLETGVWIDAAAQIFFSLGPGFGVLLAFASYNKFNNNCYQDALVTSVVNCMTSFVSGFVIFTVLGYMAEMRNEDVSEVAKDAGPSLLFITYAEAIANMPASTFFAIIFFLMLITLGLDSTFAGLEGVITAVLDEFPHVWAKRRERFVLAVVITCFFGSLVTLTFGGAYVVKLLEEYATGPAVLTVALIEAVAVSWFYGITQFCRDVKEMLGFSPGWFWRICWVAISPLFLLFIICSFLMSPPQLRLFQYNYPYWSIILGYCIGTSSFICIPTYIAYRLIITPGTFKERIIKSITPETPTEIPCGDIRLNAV

Angiotensin AT2 = target: T16, Angiotensin AT2 (Homo sapiens, UniProt P50052); set-up: Cerep/Eurofins selectivity panel, receptors, channels and transporters, per cent inhibition at 10 uM; settings: read-out: % Inhibition
T16 construct: gene AGTR2

Tachykinin NK2 = target: T17, Tachykinin NK2 (Homo sapiens, UniProt P21452); set-up: Cerep/Eurofins selectivity panel, receptors, channels and transporters, per cent inhibition at 10 uM; settings: read-out: % Inhibition
T17 construct: gene TACR2

Vasopressin V2 = target: T18, Vasopressin V2 (Homo sapiens, UniProt P30518); set-up: Cerep/Eurofins selectivity panel, receptors, channels and transporters, per cent inhibition at 10 uM; settings: read-out: % Inhibition
T18 construct: gene AVPR2

Bradykinin B2 = target: T19, Bradykinin B2 (Homo sapiens, UniProt P30411); set-up: Cerep/Eurofins selectivity panel, receptors, channels and transporters, per cent inhibition at 10 uM; settings: read-out: % Inhibition
T19 construct: gene BDKRB2

Cholecystokinin CCK1 = target: T20, Cholecystokinin CCK1 (Homo sapiens, UniProt P32238); set-up: Cerep/Eurofins selectivity panel, receptors, channels and transporters, per cent inhibition at 10 uM; settings: read-out: % Inhibition
T20 construct: gene CCKAR

[12] = target: T21, Transporter, Dopamine (DAT) (Homo sapiens, UniProt Q01959); set-up: Cerep/Eurofins selectivity panel, receptors, channels and transporters, per cent inhibition at 10 uM; settings: read-out: % Inhibition
T21 construct: gene SLC6A3

T1 sequence (P04035 whole entry): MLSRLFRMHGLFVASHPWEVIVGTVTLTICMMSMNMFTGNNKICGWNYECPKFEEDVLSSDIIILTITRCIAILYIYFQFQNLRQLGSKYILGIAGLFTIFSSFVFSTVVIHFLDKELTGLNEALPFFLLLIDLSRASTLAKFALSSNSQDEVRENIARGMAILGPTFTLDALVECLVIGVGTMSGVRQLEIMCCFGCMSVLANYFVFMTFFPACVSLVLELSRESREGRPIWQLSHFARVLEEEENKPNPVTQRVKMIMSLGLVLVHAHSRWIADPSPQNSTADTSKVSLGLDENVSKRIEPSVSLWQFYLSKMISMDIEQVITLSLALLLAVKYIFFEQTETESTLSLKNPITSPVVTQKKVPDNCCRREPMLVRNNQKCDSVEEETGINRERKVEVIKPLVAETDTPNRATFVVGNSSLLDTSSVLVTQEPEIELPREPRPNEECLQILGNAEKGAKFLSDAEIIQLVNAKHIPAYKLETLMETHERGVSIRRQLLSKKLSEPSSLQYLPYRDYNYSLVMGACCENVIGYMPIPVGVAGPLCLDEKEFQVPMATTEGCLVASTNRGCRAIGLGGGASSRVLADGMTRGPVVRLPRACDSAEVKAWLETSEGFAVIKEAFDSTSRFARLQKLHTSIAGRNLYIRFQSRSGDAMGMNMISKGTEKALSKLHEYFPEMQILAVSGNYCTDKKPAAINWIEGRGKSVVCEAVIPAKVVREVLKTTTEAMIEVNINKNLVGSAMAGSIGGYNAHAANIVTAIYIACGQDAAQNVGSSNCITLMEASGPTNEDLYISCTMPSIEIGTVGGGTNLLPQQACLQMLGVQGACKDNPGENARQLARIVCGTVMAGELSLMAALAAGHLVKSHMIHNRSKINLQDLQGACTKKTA

SMILES: C[C@]1(Nc2cnc(C(F)(F)F)cn2)CCC[C@@H]1NC(=O)c1ncccc1-n1nccn1 [CVN45502]
- inhibition at 10 µM (HMG-CoA Reductase): -4%
- inhibition at 10 µM (Cyclooxygenase COX-1): 5%
- inhibition at 10 µM [1]: -4%
- inhibition at 10 µM (Monoamine Oxidase MAO-B): 8%
- inhibition at 10 µM (Phosphodiesterase PDE5): 29%
- inhibition at 10 µM [2]: 5%
- inhibition at 10 µM [3]: 12%
- inhibition at 10 µM [4]: -22%
- inhibition at 10 µM (Peptidase, Renin): 10%
- inhibition at 10 µM [5]: 0%
- inhibition at 10 µM [6]: 18%
- inhibition at 10 µM [7]: 6%
- inhibition at 10 µM [8]: -14%
- inhibition at 10 µM [9]: -1%
- inhibition at 10 µM (5-Lipoxygenase): 14%
- inhibition at 10 µM [10]: -8%
- inhibition at 10 µM (Muscarinic M2): -7%
- inhibition at 10 µM (Cholecystokinin CCK2): 5%
- inhibition at 10 µM [11]: 7%
- inhibition at 10 µM (Angiotensin AT2): 5%
- inhibition at 10 µM (Tachykinin NK2): -8%
- inhibition at 10 µM (Vasopressin V2): -4%
- inhibition at 10 µM (Bradykinin B2): -18%
- inhibition at 10 µM (Cholecystokinin CCK1): -18%
- inhibition at 10 µM [12]: 4%
